Measured values as given in paper PMC6268140, “Absorption and Interaction of the Main Constituents from the Traditional Chinese Drug Pair Shaoyao-Gancao via a Caco-2 Cell Monolayer Model” (Molecules, 2012).

Tests used:
[1] = molecular target: P-glycoprotein (P-gp) (Homo sapiens, UniProt P08183); settings: Caco-2, 4 h, 50 µM, pH 7.4
Text: To determine whether P-gp is involved in the transport of these compounds, their transports were studied in the presence of verapamil, a known inhibitor for P-gp.
All data were presented as means ± SD. […] Results were considered significant at p < 0.05.

[2] = Transport across Caco-2 cell monolayers (A-B and B-A directions); settings: human; for Papp A→B at 4 h: Caco-2, pH 7.4; for efflux ratio at 4 h: Caco-2, pH 7.4, Efflux ratio PBA/PAB; for Papp at 4 h: mean ± SD, n = 3
Description: (§1) Cells were cultured in a humidified atmosphere of 5% CO2 and 95% air at 37 °C. The Dulbecco’s modified Eagle’s medium was supplemented with 10% (v/v) fetal bovine serum, 1% nonessential amino acids, 100 U/mL penicillin, and 100 µg/mL streptomycin. When the cell culture reached 80% confluence, it was rinsed with phosphate-buffered saline and split using trypsin. For transport experiments, the cells were seeded on 3 μm porous polycarbonate cell culture inserts from Nunc, which has a surface area of 4.2 cm^2 at a density of 2,500,000 cells/cm^2. The culture media was replaced every other day. The monolayers were ready for experiments from 19 to 22 days after seeding. Well-developed Caco-2 cell monolayers with transepithelial electrical resistance (TEER) values greater than 400 Ω × cm^2 were used for the experiment.
(§2) Paeoniflorin, glycyrrhizic acid, and liquiritin were dissolved in dimethyl sulfoxide (DMSO)-ethanol (v/v = 1/1) to prepare the stock solution (10 mM) for each single compound. The above-mentioned solutions were further diluted with Hank’s balanced salt solution (HBSS, pH = 7.4) to obtain a series of working standard solutions, and the final concentrations of paeoniflorin, glycyrrhizic acid, or liquiritin in the transport samples were 50 µM, 20 µM, or 50 µM, respectively. Moreover, the final concentrations of the organic solvent of different samples were controlled below 0.5% to ensure the safety to the cells.
(§3) Dry Shaoyao (100 g) or Gancao (100 g) herb materials were extracted twice with boiling water for 1 h each time, and the solutions were filtered through gauze. Then, the filtrates were merged and concentrated to 100 mL as the Shaoyao extract (1 g/mL) containing paeoniflorin (22.41 mg/mL) or Gancao extract (1 g/mL) containing glycyrrhizic acid (16.35 mg/mL) and liquiritin (22.38 mg/mL). Subsequently, the single extract or mixed extract was dissolved in HBSS (pH = 7.4) to obtain a series of working standard solutions, and the final concentrations of paeoniflorin, glycyrrhizic acid, or liquiritin in the transport samples were 50 µM, 22 µM, or 54 µM, respectively. In addition, the ratio of Shaoyao and Gancao in the mixed extract was 1:1. Meanwhile, testosterone (internal standard) was dissolved in acetonitrile with acetic acid (v/v = 94/6) to 100 µM. In addition, verapamil was dissolved in water to 5 mM when it was used.
(§4) The cell monolayers were washed three times with 37 °C HBSS (pH 7.4). The monolayers were incubated with the buffer for 1 h, and the incubation medium was then aspirated. Afterwards, a single component or extract solution was loaded on the apical or basolateral side. When the transport inhibitor (verapamil) was used, it was loaded only at the donor side. The amounts of transported drugs in the receiver media were determined by ultra-performance liquid chromatography (UPLC). In the test for each solution, four donor samples (400 μL) and four receiver samples (400 μL) were taken at time intervals of 1, 2, 3, and 4 h, followed by an immediate replacement with fresh donor solution (400 μL) to the donor side or fresh buffer (400 μL) to the receiver side.
(§5) To each transport sample (400 μL), 100 μL of acetonitrile containing 100 μM of testosterone was added as an internal standard and a preservative. The resulting mixture was vortexed for 30 s and then centrifuged at 15,000 rpm for 15 min, and the supernatant obtained was analyzed by UPLC.
(§6) UPLC was used to determine the concentration of the compounds in the transport samples.

[3] = system: Caco-2 cell monolayers; test: as above; settings: mixture of Shaoyao-Gancao extract vs. Gancao extract; 22 μM
Description: as §1, §2, §3, §4, §5, §6

[4] = single component solution, paeoniflorin 50 μM, glycyrrhizic acid 20 μM, liquiritin 50 μM
[5] = Caco-2, pH 7.4, Papp PAB, in the mixture of Shaoyao-Gancao extract (1:1), paeoniflorin 50 μM, glycyrrhizic acid 22 μM, liquiritin 54 μM
[6] = Caco-2, pH 7.4, Papp PAB, paeoniflorin in Shaoyao extract (50 μM), glycyrrhizic acid (22 μM) and liquiritin (54 μM) in Gancao extract
[7] = Caco-2, pH 7.4, Papp PBA (secretary permeability), single component solution, paeoniflorin 50 μM, glycyrrhizic acid 20 μM, liquiritin 50 μM, HBSS pH 7.4
[8] = Caco-2, pH 7.4, Papp PBA, in the mixture of Shaoyao-Gancao extract (1:1), paeoniflorin 50 μM, glycyrrhizic acid 22 μM, liquiritin 54 μM
[9] = Caco-2, pH 7.4, Papp PBA, paeoniflorin in Shaoyao extract (50 μM), glycyrrhizic acid (22 μM) and liquiritin (54 μM) in Gancao extract

Chain of P-glycoprotein (P-gp) (P08183 whole entry): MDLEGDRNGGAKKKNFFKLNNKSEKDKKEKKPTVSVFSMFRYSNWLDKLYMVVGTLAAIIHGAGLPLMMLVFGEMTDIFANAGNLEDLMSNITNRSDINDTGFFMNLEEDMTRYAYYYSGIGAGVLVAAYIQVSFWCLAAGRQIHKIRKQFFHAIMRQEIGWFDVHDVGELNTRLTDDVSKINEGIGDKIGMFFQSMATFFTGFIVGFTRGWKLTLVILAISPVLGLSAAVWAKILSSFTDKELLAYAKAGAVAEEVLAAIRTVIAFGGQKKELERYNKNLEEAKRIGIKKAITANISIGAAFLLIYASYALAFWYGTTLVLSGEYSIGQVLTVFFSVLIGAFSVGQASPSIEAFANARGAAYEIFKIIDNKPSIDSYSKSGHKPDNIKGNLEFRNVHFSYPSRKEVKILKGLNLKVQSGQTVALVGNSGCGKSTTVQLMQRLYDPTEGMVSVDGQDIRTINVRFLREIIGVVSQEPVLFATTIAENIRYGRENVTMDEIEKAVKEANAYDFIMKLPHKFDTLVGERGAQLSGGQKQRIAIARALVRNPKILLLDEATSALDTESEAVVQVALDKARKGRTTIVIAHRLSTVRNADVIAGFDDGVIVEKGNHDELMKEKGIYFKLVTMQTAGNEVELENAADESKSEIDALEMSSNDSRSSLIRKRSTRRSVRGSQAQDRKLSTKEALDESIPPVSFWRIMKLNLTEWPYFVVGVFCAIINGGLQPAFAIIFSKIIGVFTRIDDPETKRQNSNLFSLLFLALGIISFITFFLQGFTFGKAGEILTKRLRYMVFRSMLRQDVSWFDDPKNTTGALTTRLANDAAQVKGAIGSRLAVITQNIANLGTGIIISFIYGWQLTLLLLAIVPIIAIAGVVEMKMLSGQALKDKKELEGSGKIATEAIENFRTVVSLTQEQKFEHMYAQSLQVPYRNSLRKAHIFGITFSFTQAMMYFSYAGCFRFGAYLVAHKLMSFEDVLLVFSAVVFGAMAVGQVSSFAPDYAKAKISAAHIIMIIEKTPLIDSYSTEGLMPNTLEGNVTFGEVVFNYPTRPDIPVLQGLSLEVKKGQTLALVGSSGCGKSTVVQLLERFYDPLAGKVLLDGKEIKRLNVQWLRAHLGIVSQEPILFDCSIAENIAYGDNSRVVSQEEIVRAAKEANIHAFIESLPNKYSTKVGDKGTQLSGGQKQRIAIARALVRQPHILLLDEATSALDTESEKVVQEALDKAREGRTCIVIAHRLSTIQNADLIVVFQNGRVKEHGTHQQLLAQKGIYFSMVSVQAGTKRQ

With O=C1C[C@@H](c2ccc(O[C@@H]3O[C@H](CO)[C@@H](O)[C@H](O)[C@H]3O)cc2)Oc2cc(O)ccc21 [Liquiritin] as the molecule, how does the “Decrease in the efflux ratio after addition of verapamil” value [1] read?
Its value is 60.47%.

What about the Papp A→B at 4 h [2] of the same molecule?
Its Papp A→B at 4 h is 0.73 ± 0.04 ×10⁻⁶ cm/s.

And the efflux ratio at 4 h [2, 4]?
The efflux ratio at 4 h was 2.15.

What about the Papp at 4 h [2, 5] of the same molecule?
Its Papp at 4 h is 1.31 ± 0.06 ×10⁻⁶ cm/s.

What about the Papp at 4 h [2, 6] of the same molecule?
The Papp at 4 h was 1.2 ± 0.06 ×10⁻⁶ cm/s.

And the Papp at 4 h [2, 7]?
The Papp at 4 h was 1.57 ± 0.05 ×10⁻⁶ cm/s.

And the Papp at 4 h [2, 8]?
Its Papp at 4 h is 1.58 ± 0.04 ×10⁻⁶ cm/s.

And the Papp at 4 h [2, 9]?
The Papp at 4 h was 1.59 ± 0.02 ×10⁻⁶ cm/s.

For CC1(C)[C@@H](O[C@H]2O[C@H](C(=O)O)[C@@H](O)[C@H](O)[C@H]2O[C@@H]2O[C@H](C(=O)O)[C@@H](O)[C@H](O)[C@H]2O)CC[C@]2(C)[C@H]3C(=O)C=C4[C@@H]5C[C@@](C)(C(=O)O)CC[C@]5(C)CC[C@@]4(C)[C@]3(C)CC[C@@H]12 [Glycyrrhizic acid], which Papp A→B at 4 h [2] is on record?
Its Papp A→B at 4 h is 0.36 ± 0.04 ×10⁻⁶ cm/s.

What about the efflux ratio at 4 h, 22 µM ([2]; Caco-2, pH 7.4, Decrease of efflux ratio in the mixture compared to the Gancao extract, mixture of Shaoyao-Gancao extract vs. Gancao extract, 22 μM) of the same molecule?
Its efflux ratio at 4 h, 22 µM is over 1.

And the efflux ratio at 4 h [2, 4]?
The efflux ratio at 4 h was 2.31.

What about the Papp at 4 h [2, 5] of the same molecule?
The Papp at 4 h was 1.17 ± 0.08 ×10⁻⁶ cm/s.

What about the Papp at 4 h [2, 6] of the same molecule?
The Papp at 4 h was 0.41 ± 0.05 ×10⁻⁶ cm/s.

And the Papp at 4 h [2, 7]?
The Papp at 4 h was 0.83 ± 0.07 ×10⁻⁶ cm/s.

What about the Papp at 4 h [2, 8] of the same molecule?
The Papp at 4 h was 1.21 ± 0.06 ×10⁻⁶ cm/s.

What about the Papp at 4 h [2, 9] of the same molecule?
The Papp at 4 h was 0.89 ± 0.04 ×10⁻⁶ cm/s.

What about the “Increase of PAB in the mixture compared to PAB in the Gancao extract” value [3] of the same molecule?
Its value is “over two times”.

For C[C@@]12C[C@@]3(O)O[C@@H](O1)[C@]1(COC(=O)c4ccccc4)[C@H]3C[C@@]12O[C@@H]1O[C@H](CO)[C@@H](O)[C@H](O)[C@H]1O [Paeoniflorin], which “Decrease in the efflux ratio after addition of verapamil” value [1] is on record?
Its value is 54.29%.

What about the Papp A→B at 4 h [2] of the same molecule?
The Papp A→B at 4 h was 0.61 ± 0.09 ×10⁻⁶ cm/s.

What about the efflux ratio at 4 h [2, 4] of the same molecule?
The efflux ratio at 4 h was 2.1.

What about the Papp at 4 h [2, 5] of the same molecule?
Its Papp at 4 h is 1.96 ± 0.08 ×10⁻⁶ cm/s.

What about the Papp at 4 h [2, 6] of the same molecule?
The Papp at 4 h was 0.94 ± 0.11 ×10⁻⁶ cm/s.

What about the Papp at 4 h [2, 7] of the same molecule?
Its Papp at 4 h is 1.28 ± 0.05 ×10⁻⁶ cm/s.

What about the Papp at 4 h [2, 8] of the same molecule?
The Papp at 4 h was 1.77 ± 0.07 ×10⁻⁶ cm/s.

What about the Papp at 4 h [2, 9] of the same molecule?
Its Papp at 4 h is 1.3 ± 0.02 ×10⁻⁶ cm/s.
